The structures appear in SMILES notation.

For this assay, the target named is T1, human FSH receptor (Homo sapiens, UniProt P23945).
T1 construct: expressed in transfected cells; host or cells: CHO cells (hFSHR clone 16)
T1 sequence (P23945 18-695): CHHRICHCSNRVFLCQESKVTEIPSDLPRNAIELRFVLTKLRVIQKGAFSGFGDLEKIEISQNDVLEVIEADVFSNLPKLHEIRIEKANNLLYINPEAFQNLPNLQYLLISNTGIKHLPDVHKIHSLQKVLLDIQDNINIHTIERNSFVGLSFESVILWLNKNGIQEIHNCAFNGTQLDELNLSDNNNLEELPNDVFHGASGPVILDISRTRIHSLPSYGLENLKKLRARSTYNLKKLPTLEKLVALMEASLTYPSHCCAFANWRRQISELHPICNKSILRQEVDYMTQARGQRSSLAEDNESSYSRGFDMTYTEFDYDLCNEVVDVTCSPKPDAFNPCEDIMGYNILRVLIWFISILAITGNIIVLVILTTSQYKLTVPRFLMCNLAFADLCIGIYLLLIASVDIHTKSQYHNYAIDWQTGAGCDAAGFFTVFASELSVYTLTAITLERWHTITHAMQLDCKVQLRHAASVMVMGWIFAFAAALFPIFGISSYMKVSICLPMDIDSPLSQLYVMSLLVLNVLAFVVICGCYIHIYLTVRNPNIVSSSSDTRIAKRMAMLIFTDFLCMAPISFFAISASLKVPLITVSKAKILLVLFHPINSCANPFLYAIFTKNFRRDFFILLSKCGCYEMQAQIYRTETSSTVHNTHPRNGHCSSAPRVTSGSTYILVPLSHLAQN
As to the kind of experiment: HTRF assay for measuring cAMP in cells (FSH antagonism). The note with it: FSH-antagonistic effect; CHO cells stably transfected with the human FSH receptor (hFSHR clone 16); in the presence of 1 e-9 mol/l hFSH; 37°C for 2h. It counts as cell-based. The protocol: HTRF assay for measuring cAMP in cells
The method is based on a competitive immunoassay between native cAMP, which has been produced by the cells, and cAMP which is labelled with XL665. The tracer binding was visualized by a monoclonal antibody, anti-cAMP labelled with cryptate [HTRF = homogeneous time-resolved fluorescence].
The specific signal is inversely proportional to the cAMP concentration of the samples employed.
The 665nm/ 620nm fluorescence ratio was evaluated.
The following material was used: 96-well plates for the tissue culture, 96-well plates with black edge and black base (e.g. Fluotrac 600 from Greiner), 96-well plates for the substance dilutions of polypropylene and cAMP Femtomolar (4000wells Kit, CIS Bio International # 62AM1PEC).
The following reagents were used: BSA (bovine serum albumin) Fraction V protease-free, IBMX (3-isobutyl-1-methylxanthine), hFSH (human follicle stimulating hormone), Triton X-100 analytical grade, potassium fluoride analytical grade, G 418 (Geneticin) and Accutase.
Buffer 1 (washing and testing buffer) contained PBS, 1 mM CaCl2, 1 mM MgCl2, 0.2% glucose; 0.1% BSA, 1 mM IBMX.
Buffer 2 (2x lysis buffer) contained 1% Triton X-100 in PBS (without CaCl2 and MgCl2).
Buffer 3 (assay buffer) contained 50 mM potassium phosphate buffer (pH 7.0); 800 mM potassium fluoride; 0.2% BSA (always added fresh).
On day 1, the cells were seeded in 96-well plates (3x10^4 cells per well hFSHR clone 16 cells (CHO cells stably transfected with the human FSH receptor in 150 µl of medium). The next day, test substance dilutions were made up. For this purpose, all the substances were diluted in ice-cold buffer 1 (with or without hFSH), and the substance dilutions were placed on ice until applied to the cells.
The cell supernatant was then aspirated off, and the cells were washed 2x with 200 µl of buffer 1. The cells were treated with 60 µl of the appropriate substance concentrations at 37°C for 2h. The cells were then lysed with 60 µl of buffer 2 (put onto the supernatant) (on a plate shaker at RT for 30 min).
The test conjugates (XL-665 and anti-cAMP cryptate) were diluted in buffer 3 in accordance with the manufacturers' information. The actual mixture for measurement was pipetted into a black 96-well plate (in each case 15 µl of the cell lysate diluted with 35 µl of buffer 1; firstly 25 µl of XL-665 conjugate were pipetted and, after 10 min, 25 µl of the anti-cAMP cryptate were added). This is followed by incubation at RT for 90 minutes. The measurement was carried out in a PheraStar (BMG).
Tissue culture conditions
• 1) hFSHr clone 16 Ham's F12 PSG 10% FCS 700 µg/ml G 418 (Geneticin) from PAA.
Dose-effect curve (hFSH) for the human receptor: 1 e-8, 3e-9, 1 e-9, 3e-10, 1 e-1 0, 3e-11, 1 e-11, 3e-12 mol/l.
The test substances were employed in suitable dilutions in the absence (test for agonism) and in the presence of 1 e-9 mol/l hFSH.
The values of the well ratio were averaged and then entered directly in SigmaPlot versus the concentrations. The maximum and minimum values were determined for each plate, and half the difference is to be regarded as IC50.
(In general: Time-resolved FRET reads energy transfer from a long-lived donor to a nearby acceptor.)
Regarding `COc1ccc2nc(-c3ccccc3)cc(C(=O)NC3(CO)CCc4[nH]c5cc(Cl)c(F)cc5c4C3)c2c1` (centres unmarked) [Example 13, 6-Methoxy-2-phenyl-quinoline-4-carboxylic acid (7-chloro-6-fluoro-3-hydroxymethyl-2,3,4,9-tetrahydro-1 H-carbazol-3-yl)-amide], the IC50 (as a rule, the concentration that gives 50% inhibition) turned out to be 8000 nM. The figure for `COc1ccc(-c2ccc(OC(C)C)c(C(=O)NC3(CO)CCc4[nH]c5c(C)ccc(C)c5c4C3)c2)cc1OC` (centres unmarked) [Example 19, 4-Isopropoxy-3',4'-dimethoxy-biphenyl-3-carboxylic acid (3-hydroxymethyl-5,8-dimethyl-2,3,4,9-tetrahydro-1H-carbazol-3-yl)-amide] is 4000 nM; for `CNC(=O)c1ccc(-c2ccc(OC(C)C)c(C(=O)NC3(CO)CCc4[nH]c5c(Cl)ccc(Cl)c5c4C3)c2)cc1Cl` (centres unmarked) [Example 25, 3'-Chloro-4-isopropoxy-biphenyl-3,4'-dicarboxylic acid 3-[(5,8-dichloro-3-hydroxymethyl-2,3,4,9-tetrahydro-1 H-carbazol-3-yl)-amide] 4'-methyl-amide] it is 900 nM; for `CNC(=O)c1ccc(-c2ccc(OC(C)C)c(C(=O)NC3(CO)CCc4[nH]c5c(Cl)cccc5c4C3)c2)cc1Cl` (centres unmarked) [Example 30, 3'-Chloro-4-isopropoxy-biphenyl-3,4'-dicarboxylic acid 3-[(8-chloro-3-hydroxymethyl-2,3,4,9-tetrahydro-1H-carbazol-3-yl)-amide] 4'-methylamide] it is 200 nM.

Take `CNC(=O)c1ccc(-c2ccc(OC(C)C)c(C(=O)NC3(CO)CCc4[nH]c5ccc(C)cc5c4C3)c2)cc1Cl` (centres unmarked) [Example 32, 3'-Chloro-4-isopropoxy-biphenyl-3,4'-dicarboxylic acid 3-[(3-hydroxymethyl-6-methyl-2,3,4,9-tetrahydro-1H-carbazol-3-yl)-amide] 4'-methylamide]: the IC50 was determined as 3000 nM.

On to `CNC(=O)c1ccc(-c2ccc(OC(C)C)c(C(=O)NC3(CO)CCc4[nH]c5ccc(F)cc5c4C3)c2)cc1Cl` (centres unmarked) [Example 33, 3'-Chloro-4-isopropoxy-biphenyl-3,4'-dicarboxylic acid 3-[(6-fluoro-3-hydroxymethyl-2,3,4,9-tetrahydro-1H-carbazol-3-yl)-amide] 4'-methylamide], for which the IC50 came to 70 nM. To `CNC(=O)c1ccc(-c2ccc(OC(C)C)c(C(=O)NC3(CO)CCc4[nH]c5ccc(Cl)cc5c4C3)c2)cc1Cl` (centres unmarked) [Example 34, 3'-Chloro-4-isopropoxy-biphenyl-3,4'-dicarboxylic acid 3-[(6-chloro-3-hydroxymethyl-2,3,4,9-tetrahydro-1 H-carbazol-3-yl)-amide] 4'-methylamide] belongs 1500 nM.

As to `Cc1ccc2[nH]c3c(c2c1Cl)CC(CO)(NC(=O)c1cc(-c2cc4ccccc4o2)ccc1OC(C)C)CC3` (centres unmarked) [Example 40, 5-Benzofuran-2-yl-N-(5-chloro-3-hydroxymethyl-6-methyl-2,3,4,9-tetrahydro-1H-carbazol-3-yl)-2-isopropoxy-benzamide], the IC50 amounted to 750 nM.
